In PubChem BioAssay AID504645 (Southern Research Specialized Biocontainment Screening …, 2011):
Calls of active or inactive are those of the source. No rule for the calls is given here.

Assay: M tuberculosis H37Rv growth inhibition in absence of glycerol, confirmatory, IC90 (AID 504645);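 also: bacteria grown one week before the viability dye was added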
Details: M. tuberculosis H37Rv growth inhibition, glycerol-free medium; at 25 µM (top of the series)

Structure (SMILES)	inhibition
Nc1cc(=O)[nH]c(SCC(=O)Nc2ccccc2-c2ccccc2)n1	3.67% (inactive)
CCOC(=O)C(CC)Sc1ncnc2c1nnn2-c1ccc(F)cc1 (stereo not drawn)	14.7% (inactive)
CCc1cc(=O)[nH]c(SCC(=O)Nc2ccc3c(c2)OCCO3)n1	5.24% (inactive)
O=c1[nH]c(=S)[nH]c2ccccc12	-4.53% (inactive)
COc1ccc(NC(=O)CSc2nc(NS(=O)(=O)c3ccc(C)cc3)cc(=O)[nH]2)cc1	1.34% (inactive)
O=C(NCCc1ccc(Cl)cc1)C1CCC(CNc2c(N3CCCCC3)c(=O)c2=O)CC1 (stereo not drawn)	14.2% (inactive)
Cc1cc(=O)[nH]c(=S)[nH]1	3.98% (inactive)
O=C(NCC1COc2ccccc2O1)C1CCC(CNc2c(N3CCCCC3)c(=O)c2=O)CC1 (stereo not drawn)	4.5% (inactive)
